Test results: patent publication US10335409B2 (priority 2012, dated 2019)
Read-outs that look alike come from different tables or passages of the source.

Experiments:
Assay type in all cases: cell-based, hepatitis C virus
[1] = tested on: genotype 1b (Con1) stable HCV replicon in Huh-7-derived cells; assay: Stable subgenomic HCV replicon EC50, genotype 1b (Renilla luciferase); details: Hepatitis C virus, stable replicon genotype 1b, 72 h, read-out: EC50 1B RLUC
Method in brief: (§1)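 Compounds, three-fold diluted, were applied to Huh-7-derived cells harbouring luciferase replicons (genotype 1a H77, 1b Con1, 2a JFH-1, 4a ED43, with strain-specific adaptive mutations). Seventy-two hours later, intracellular replication was gauged by Renilla luciferase activity and EC50 derived by regression.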

[2] = tested on: genotype 3a (S52) stable HCV replicon in Huh-7-derived cells; assay: Stable subgenomic HCV replicon EC50, genotype 3a (Renilla luciferase); details: Hepatitis C virus, 72 h, read-out: EC50 3A RLUC
[3] = tested on: genotype 1a (H77) wild type transient HCV replicon in Huh-7-derived cells; assay: Transient-transfected HCV replicon EC50, genotype 1a wild type; details: Hepatitis C virus, 72 h, read-out: EC50 1A WT
[4] = tested on: genotype 1b NS3/4a protease inhibitor resistant variant D168A transient HCV replicon in Huh-7-derived cells; assay: Transient-transfected HCV replicon EC50, genotype 1b D168A; details: Hepatitis C virus, 72 h, read-out: EC50 1B D168A, transient-transfected replicon genotype 1b D168A resistant variant, 72 h
[5] = tested on: genotype 1b (Con1) wild type transient HCV replicon in Huh-7-derived cells; assay: Transient-transfected HCV replicon EC50, genotype 1b wild type; details: Hepatitis C virus, 72 h, read-out: EC50 1B WT
[6] = tested on: genotype 2a (JFH-1) stable HCV replicon in Huh-7-derived cells; assay: Stable subgenomic HCV replicon EC50, genotype 2a (Renilla luciferase); details: Hepatitis C virus, stable replicon genotype 2a, 72 h, read-out: EC50 2A RLUC
Method in brief: as §1

[7] = tested on: genotype 1a (H77) stable HCV replicon in Huh-7-derived cells; assay: Stable subgenomic HCV replicon EC50, genotype 1a (Renilla luciferase); details: Hepatitis C virus, stable replicon genotype 1a, 72 h, read-out: EC50 1A RLUC
Method in brief: as §1

[8] = tested on: genotype 1a NS3/4a protease inhibitor resistant variant R155K transient HCV replicon in Huh-7-derived cells; assay: Transient-transfected HCV replicon EC50, genotype 1a R155K; details: Hepatitis C virus, 72 h, read-out: EC50 1A R155K, transient-transfected replicon genotype 1a R155K resistant variant, 72 h
[9] = tested on: genotype 4a (ED43) stable HCV replicon in Huh-7-derived cells; assay: Stable subgenomic HCV replicon EC50, genotype 4a (Renilla luciferase); details: Hepatitis C virus, 72 h, read-out: EC50 4A RLUC
Method in brief: as §1

[10] = tested on: genotype 3a (S52) wild type transient HCV replicon in Huh-7-derived cells; assay: Transient-transfected HCV replicon EC50, genotype 3a wild type; details: Hepatitis C virus, 72 h, read-out: EC50 3A WT
[11] = transient-transfected replicon genotype 1a wild type
[12] = transient-transfected replicon genotype 1b wild type
[13] = transient-transfected replicon genotype 3a wild type

Row | Compound | EC50 [1] [µM] | EC50 [2] [µM] | EC50 [3] [µM] | EC50 [4] [µM] | EC50 [5] [µM] | EC50 [6] [µM] | EC50 [7] [µM] | EC50 [8] [µM] | EC50 [9] [µM] | EC50 [10] [µM] | EC50 [3, 11] [µM] | EC50 [5, 12] [µM] | EC50 [10, 13] [µM]
1 | COc1ccc2nc3c(nc2c1)O[C@H]1CN(C(=O)[C@H](C(C)(C)C)NC(=O)O[C@@H]2C[C@@H]4C[C@@H]4[C@H]2CCCCC3)[C@H](C(=O)N[C@]2(C(=O)NS(=O)(=O)C3(C)CC3)C[C@H]2CC(F)F)[C@@H]1C [Example 58, (1aS,2aR,6S,9S,10S,11R,23aR,23bS)-6-tert-butyl-N-[(1R,2S)-2-(2,2-difluoroethyl)-1-{[(1-methylcyclopropyl)sulfonyl]carbamoyl}cyclopropyl]-15-methoxy-10-methyl-4,7-dioxo-1a,2,2a,4,5,6,7,10,11,19,20,21,22,23,23a,23b-hexadecahydro-1H,9H-8,11-methanocyclopropa[4′,5′]cyclopenta[1′,2′:18,19][1,10,3,6]dioxadiazacyclononadecino[11,12-b]quinoxaline-9-carboxamide] | 0.0097 | 0.134 | 0.012 | 0.023 | 0.014 | 0.012 | 0.012 | 0.018 | 0.012 | 0.038 | – | – | –
2 | CC[C@@H]1[C@@H]2CN(C(=O)[C@H](C(C)(C)C)NC(=O)O[C@@H]3C[C@@H]4C[C@@H]4[C@H]3CCCCC(F)(F)c3nc4ccc(OC)cc4nc3O2)[C@@H]1C(=O)N[C@]1(C(=O)NS(=O)(=O)C2(C)CC2)C[C@H]1C(F)F [Example 61, (1aS,2aR,6S,9S,10S,11R,23aR,23bS)-6-tert-butyl-N-[(1R,2R)-2-(difluoromethyl)-1-{[(1-methylcyclopropyl)sulfonyl]carbamoyl}cyclopropyl]-10-ethyl-19,19-difluoro-15-methoxy-4,7-dioxo-1a,2,2a,4,5,6,7,10,11,19,20,21,22,23,23a,23b-hexadecahydro-1H,9H-8,11-methanocyclopropa[4′,5′]cyclopenta[1′,2′:18,19][1,10,3,6]dioxadiazacyclononadecino[11,12-b]quinoxaline-9-carboxamide] | 0.01 | 0.028 | – | 0.0067 | – | 0.0087 | 0.013 | 0.01 | 0.011 | – | 0.012 | 0.0093 | 0.013
3 | CC[C@@H]1[C@@H]2CN(C(=O)[C@H](C(C)(C)C)NC(=O)O[C@@]3(C)C[C@@H]3CCCCC(F)(F)c3nc4ccc(OC)cc4nc3O2)[C@@H]1C(=O)N[C@]1(C(=O)NS(=O)(=O)C2(C)CC2)C[C@H]1C(F)F [Example 64, (1aS,5S,8S,9S,10R,22aS)-5-tert-butyl-N-[(1R,2R)-2-(difluoromethyl)-1-{[(1-methylcyclopropyl)sulfonyl]carbamoyl}cyclopropyl]-9-ethyl-18,18-difluoro-14-methoxy-1a-methyl-3,6-dioxo-1,1a,3,4,5,6,9,10,18,19,20,21,22,22a-tetradecahydro-8H-7,10-methanocyclopropa[18,19][1,10,3,6]dioxadiazacyclononadecino[11,12-b]quinoxaline-8-carboxamide] | 0.038 | 0.671 | – | 0.104 | – | 0.048 | 0.1 | 0.05 | 0.034 | – | 0.037 | 0.017 | 0.256
4 | CCC[C@@H]1[C@@H]2CN(C(=O)[C@H](C(C)(C)C)NC(=O)O[C@@H]3C[C@H]3CCCCC(F)(F)c3nc4ccc(OC)cc4nc3O2)[C@@H]1C(=O)N[C@]1(C(=O)NS(=O)(=O)C2(C)CC2)C[C@H]1C(F)F [Example 65, (1aR,5S,8S,9S,10R,22aR)-5-tert-butyl-N-[(1R,2R)-2-(difluoromethyl)-1-{[(1-methylcyclopropyl)sulfonyl]carbamoyl}cyclopropyl]-18,18-difluoro-14-methoxy-3,6-dioxo-9-propyl-1,1a,3,4,5,6,9,10,18,19,20,21,22,22a-tetradecahydro-8H-7,10-methanocyclopropa[18,19][1,10,3,6]dioxadiazacyclononadecino[11,12-b]quinoxaline-8-carboxamide] | 0.0084 | 0.03 | 0.0094 | 0.011 | 0.0064 | 0.0077 | 0.012 | 0.0081 | 0.0081 | 0.017 | – | – | –
5 | CC[C@@H]1[C@@H]2CN(C(=O)[C@H](C(C)(C)C)NC(=O)O[C@@H]3C[C@H]3CCCCCc3nc4ccc(OC)cc4nc3O2)[C@@H]1C(=O)N[C@]1(C(=O)NS(=O)(=O)C2(C)CC2)C[C@H]1CC(F)F [Example 67, (1aR,5S,8S,9S,10R,22aR)-5-tert-butyl-N-[(1R,2S)-2-(2,2-difluoroethyl)-1-{[(1-methylcyclopropyl)sulfonyl]carbamoyl}cyclopropyl]-9-ethyl-14-methoxy-3,6-dioxo-1,1a,3,4,5,6,9,10,18,19,20,21,22,22a-tetradecahydro-8H-7,10-methanocyclopropa[18,19][1,10,3,6]dioxadiazacyclononadecino[11,12-b]quinoxaline-8-carboxamide] | 0.012 | 0.383 | – | 0.086 | – | 0.024 | 0.011 | 0.042 | 0.012 | – | 0.014 | 0.01 | 0.107
6 | COc1ccc2nc3c(nc2c1)O[C@H]1CN(C(=O)[C@H](C(C)(C)C)NC(=O)O[C@H]2CC4CC(C4)[C@@H]2CCCCC3)[C@H](C(=O)N[C@]2(C(=O)NS(=O)(=O)C3CC3)C[C@H]2C(F)F)[C@@H]1C [Example 72, (4aS,8S,11S,12S,13R,25aS)-8-tert-butyl-N-[(1R,2R)-1-[(cyclopropylsulfonyl)carbamoyl]-2-(difluoromethyl)cyclopropyl]-17-methoxy-12-methyl-6,9-dioxo-2,3,4,4a,6,7,8,9,12,13,21,22,23,24,25,25a-hexadecahydro-1H,11H-1,3:10,13-dimethanoquinoxalino[2,3-k][1,10,3,6]benzodioxadiazacyclononadecine-11-carboxamide] | 0.3 | 1.82 | – | 0.687 | – | 0.74 | 0.365 | 0.227 | 0.383 | – | 0.6 | 0.165 | 0.642
7 | CC[C@@H]1[C@@H]2CN(C(=O)[C@H](C(C)(C)C)NC(=O)O[C@@H]3C[C@H]3CCCCCc3nc4ccc(OC)cc4nc3O2)[C@@H]1C(=O)N[C@]1(C(=O)NS(=O)(=O)C2(C)CC2)C[C@H]1C [Example 73, (1aR,5S,8S,9S,10R,22aR)-5-tert-butyl-9-ethyl-14-methoxy-N-[(1R,2R)-2-methyl-1-{[(1-methylcyclopropyl)sulfonyl]carbamoyl}cyclopropyl]-3,6-dioxo-1,1a,3,4,5,6,9,10,18,19,20,21,22,22a-tetradecahydro-8H-7,10-methanocyclopropa[18,19][1,10,3,6]dioxadiazacyclononadecino[11,12-b]quinoxaline-8-carboxamide] | 0.0075 | 0.178 | – | 0.075 | – | 0.022 | 0.0079 | 0.025 | 0.0072 | – | 0.0088 | 0.0062 | 0.045
8 | CC[C@@H]1[C@@H]2CN(C(=O)[C@H](C(C)(C)C)NC(=O)O[C@@H]3C[C@H]3CCCCCc3nc4ccc(OC)cc4nc3O2)[C@@H]1C(=O)N[C@]1(C(=O)NS(=O)(=O)C2(F)CC2)C[C@H]1C(F)F [Example 74, (1aR,5S,8S,9S,10R,22aR)-5-tert-butyl-N-[(1R,2R)-2-(difluoromethyl)-1-{[(1-fluorocyclopropyl)sulfonyl]carbamoyl}cyclopropyl]-9-ethyl-14-methoxy-3,6-dioxo-1,1a,3,4,5,6,9,10,18,19,20,21,22,22a-tetradecahydro-8H-7,10-methanocyclopropa[18,19][1,10,3,6]dioxadiazacyclononadecino[11,12-b]quinoxaline-8-carboxamide] | 0.005 | 0.374 | – | 0.056 | – | 0.018 | 0.008 | 0.044 | 0.0083 | – | 0.0088 | 0.0021 | 0.138
